Laboratory results as given in patent US20170354592A1 (ASCENDIA PHARMACEUTICALS, LLC, priority 2016, published 2017).

Columns and labels:
β-adrenoceptor = settings: cited from earlier work; for potency as a β-adrenoceptor antagonist versus Carvedilol: relative to carvedilol, Hoffman (2001), Tenero et al (2000)
[1] = Vital signs and adverse reactions after IV dose (non-invasive tail cuff); settings: rats iv 2.5 mg/kg
Procedure: (§1) 15 cannulated and non-cannulated, 9 and 6 rats respectively, Sprague-Dawley® male rats were divided into 3 groups. […] Treatment was administered intravenously. During the experiment, rats were inspected twice daily for vitality and as needed after dosing and intermittently and vitals, including blood pressure, heart rate, and temperature, were recorded from the non-cannulated animals. Main vital signs were monitored prior to and at multiple time points after dose administration. Blood pressure and heart rate were measured using a non-invasive tail cuff system after a brief acclimation period. Blood samples (approximately 300-325 μL each) were collected from cannulated rats at each time point into tubes containing K2EDTA.
(§2) Following centrifugation at 4° C., the plasma was collected and stored at −80° C. The blood sampling time points were as follows: prior to (PRE) and approximately 0.25, 0.5, 1, 2, 3, 8, 10 and 24 hours after dose administration. Samples were collected via Jugular Vein Cannulas.

[2] = Single IV injection of carvedilol liposomes and free-carvedilol solution, plasma PK; settings: rats, single iv 2.5 mg/kg
Procedure: as §1, §2

[3] = cited from earlier work

For COc1cc(O)ccc1OCCNCC(O)COc1cccc2[nH]c3ccccc3c12 (stereo not shown) [4-hydroxyphenyl-carvedilol], the “potency in β-blockade versus the parent compound” value (β-adrenoceptor; more potent than carvedilol) is given as “about 13 fold” and the “potency as a β-adrenoceptor antagonist versus Carvedilol” value (β-adrenoceptor) is given as “about 13 times”.
In the case of COc1ccc(O)cc1OCCNCC(O)COc1cccc2[nH]c3ccccc3c12 (stereo not shown) [5-hydroxyphenyl-carvedilol], the “potency as a β-adrenoceptor antagonist versus Carvedilol” value (β-adrenoceptor) is given as “one-half”.
For Oc1ccccc1OCCNCC(O)COc1cccc2[nH]c3ccccc3c12 (stereo not shown) [desmethylcarvedilol], the “potency as a β-adrenoceptor antagonist versus Carvedilol” value (β-adrenoceptor) is given as “approximately 2.5 times”.
For “(±)-[3-(9H-carbazol-4-yloxy)-2-hydroxypropyl][2-(2-ethoxyphenoxy)ethyl] amine [Carvedilol]”, the Diastolic ([1]; 1 Hour after dose) was 40, the HR ([1]; 1 Hour after dose) was 363 Beats/min and the MAP ([1]; 1 Hour after dose) was 69. The Temp ([1]; 1 Hour after dose) was 99 ° F, the Diastolic ([1]; 15 min after dose) was 48 and the HR ([1]; 15 min after dose) was 354 Beats/min. The MAP ([1]; 15 min after dose) was 73, the Temp ([1]; 15 min after dose) was 98 ° F and the Diastolic ([1]; 30 min after dose) was 33. It also gave an HR ([1]; 30 min after dose) of 360 Beats/min, an MAP ([1]; 30 min after dose) of 60 and a Temp ([1]; 30 min after dose) of 99 ° F. For the same compound, the “time after dose at which carvedilol was cleared from plasma” value ([2]; FIG. 3) was 3 h, the “AUC(0-T)” value ([2]; mean) was 284 ng·h/mL and the “AUC(INF)” value ([2]; mean) was 291 ng·h/mL. For the same compound, the CL ([2]; mean) was 144.0 mL/min/kg, the Cmax ([2]; mean) was 354 ng/mL and the T-HALF ([2]; mean) was 0.52 h. The Tmax ([2]; mean) was 15 min, the Vss ([2]; mean) was 6.4 L/kg and the pKa [3] was 7.8.
